Data as given in US6635641B2 (Agouron Pharmaceuticals, Inc., priority 2000, dated 2003).
Like-named read-outs stand apart in the source and are kept apart here.

Legend:
[1] = biological target: T1, LCK tyrosine kinase (Homo sapiens, UniProt P06239, C224D/P223M); experiment: LCK spectrophotometric assay; assay type: biochemical; settings: for inhibition at 1 µM: read-out: LCK-P percent inhibition; for Ki: read-out: LCK-P Ki;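 on all read-outs here: recombinant LCK kinase activity on poly(E4Y1), ADP formation coupled through PK/LDH to NADH oxidation, followed as absorbance loss at 340 nm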
T1 construct: starting from amino acid residue 223 to the end of the protein at residue 509; made in house; host or cells: insect cells
T1 sequence (P06239 223-509 P223M/C224D): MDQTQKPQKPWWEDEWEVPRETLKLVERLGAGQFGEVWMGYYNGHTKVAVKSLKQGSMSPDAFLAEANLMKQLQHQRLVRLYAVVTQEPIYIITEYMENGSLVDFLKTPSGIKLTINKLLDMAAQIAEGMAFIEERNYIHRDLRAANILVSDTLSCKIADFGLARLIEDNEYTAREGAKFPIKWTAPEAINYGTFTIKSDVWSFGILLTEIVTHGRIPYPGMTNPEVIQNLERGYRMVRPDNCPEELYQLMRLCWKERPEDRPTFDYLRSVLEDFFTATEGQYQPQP

[2] = biological target: T2, FGF-R1 intracellular kinase domain (Homo sapiens, UniProt P11362, C488A/C584S/L457V); experiment: FGF-R spectrophotometric assay; assay type: biochemical; settings: @ 1 μM; read-out: FGF-P percent inhibition;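 further: coupled PK/LDH enzyme assay: ADP from kinase phosphoryl transfer drives NADH oxidation, read as absorbance decrease at 340 nm, with 2 mM ATP and poly(E4Y1) substrate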
T2 construct: starting from the endogenous methionine residue 456 to glutamate 766; made in house; host or cells: baculovirus expression system
T2 sequence (P11362 456-766 L457V/C488A/C584S): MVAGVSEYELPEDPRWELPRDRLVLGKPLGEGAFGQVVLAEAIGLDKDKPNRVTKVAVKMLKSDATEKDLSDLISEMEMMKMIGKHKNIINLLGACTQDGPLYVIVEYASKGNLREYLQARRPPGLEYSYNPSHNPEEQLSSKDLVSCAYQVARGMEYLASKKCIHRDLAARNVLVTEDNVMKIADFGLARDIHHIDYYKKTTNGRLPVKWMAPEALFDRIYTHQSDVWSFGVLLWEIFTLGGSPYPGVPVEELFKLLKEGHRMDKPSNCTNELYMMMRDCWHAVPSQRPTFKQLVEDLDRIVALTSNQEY

[3] = biological target: T3, phosphorylated VEGF-R2Δ50 (FLVK-P) (Homo sapiens, UniProt P35968, DEL940-989/E990V); experiment: VEGF-R2 coupled spectrophotometric assay, phosphorylated construct (FLVK-P); assay type: biochemical
T3 construct: VEGF-R2Δ50 contains residues 806-939 and 990-1171; made in house; host or cells: baculovirus/insect cells
T3 sequence (P35968 with tags, fused parts or gaps DEL940-989/E990V limits assumed): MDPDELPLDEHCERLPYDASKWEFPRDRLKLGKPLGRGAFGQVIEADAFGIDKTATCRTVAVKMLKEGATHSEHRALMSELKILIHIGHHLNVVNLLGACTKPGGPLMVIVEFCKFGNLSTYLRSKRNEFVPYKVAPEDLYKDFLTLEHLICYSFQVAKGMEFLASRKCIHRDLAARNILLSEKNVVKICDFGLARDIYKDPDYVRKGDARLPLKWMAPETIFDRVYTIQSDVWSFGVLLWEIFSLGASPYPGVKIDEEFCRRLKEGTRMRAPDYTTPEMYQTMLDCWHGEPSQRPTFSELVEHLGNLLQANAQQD
Summary of the method: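 Baculovirus-expressed VEGF-R2Δ50 (residues 806-939/990-1171, E990V), optionally autophosphorylated; ADP formation coupled via PK/LDH to NADH oxidation at 340 nm, pH 7.5 Hepes. FLVK-P: 1 mM ATP, 5.1 mM poly(E4Y1), 25 mM MgCl2; FLVK: 3 mM ATP, 20 mM poly(E4Y1), 60 mM MgCl2, 2 mM MnCl2. Ki from activity over compound concentrations.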

[4] = test system: lung cancer cells (line MV522); experiment: Cancer cell proliferation (MV522) assay (MTT); assay type: cell-based; settings: MV522
Summary of the method: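 Proliferation was read by MTT reduction 72 h after compound addition, in a 4-day protocol with no starvation step. Two thousand MV522 cells were seeded in RPMI1640 with 10% FBS and 2 mM glutamine and given 1 day to attach before dosing.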

[5] = biological target: T4, unphosphorylated VEGF-R2Δ50 (FLVK) (Homo sapiens, UniProt P35968, DEL940-989/E990V); experiment: VEGF-R2 coupled spectrophotometric assay, unphosphorylated construct (FLVK); assay type: biochemical;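 further: Baculovirus-expressed cytosolic kinase domain, ADP formation linked via pyruvate kinase and lactate dehydrogenase to NADH oxidation, read as falling absorbance at 340 nm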
T4 construct: VEGF-R2Δ50 contains residues 806-939 and 990-1171; made in house; host or cells: baculovirus/insect cells
T4 sequence (P35968 with tags, fused parts or gaps DEL940-989/E990V limits assumed): as above

[6] = test system: human umbilical vein endothelial cells (HUVEC); experiment: HUVEC proliferation assay (VEGF-stimulated, MTT); assay type: cell-based; settings: Homo sapiens
Summary of the method: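 Exponentially growing HUVEC (passage 3-4) were serum-starved 24 h in F12K + 1% FBS, given test compound (final DMSO 0.1%), then stimulated 1 h later with VEGF at 6 ng/ml final. Proliferation read after 72 h by 4 h MTT dye reduction, absorbance at 595.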

[7] = HUVEC, with albumin, read-out: Huvec + Albumin IC50
[8] = unphosphorylated VEGF-R2 construct
[9] = VEGF-stimulated HUVEC proliferation, read-out: HUVEC IC50

| inhibition at 1 µM [1] | inhibition at 1 µM [2] | Ki [3] | IC50 [4] | Ki [5] | Ki [1] | melting point | inhibition at 0.05 µM ([5]; @ 50 nM, read-out: FLVK percent inhibition) | Ki [5, 8] | SMILES | IC50 ([6]; HUVEC, read-out: HUVEC IC50) | IC50 [6, 7] | IC50 [6, 9] | IC50 ([6]; HUVEC proliferation with albumin, read-out: Huvec + Albumin IC50) |
| --- | --- | --- | --- | --- | --- | --- | --- | --- | --- | --- | --- | --- | --- |
| – | 91% | 0.197 nM | > 10000 nM | – | 11.2 nM | 150 to 151 °C | – | – | Cc1cc(NC(=O)c2cccc(CCc3cc(Nc4ccccc4)n[nH]3)c2)ccc1C(C)C [Example G-3, N-(4-isopropyl-3-methylphenyl)-3-[2-(5-phenylamino-2H-pyrazol-3-yl)ethyl]benzamide] | 9.8 nM | 280 nM | – | – |
| – | 77% | 0.79 nM | > 10000 nM | 0.1 nM | 72 nM | – | – | – | COc1ccc(Nc2cc(CCc3cccc(C(=O)Nc4ccc(C(C)C)c(C)c4)c3)[nH]n2)cn1 [Example G-4, N-(4-Isopropyl-3-methyl-phenyl)-3-{2-[5-(6-methoxypyridin-3-yl)amino-2H-pyrazol-3-yl]-ethyl}-benzamide] | 16 nM | – | – | – |
| 41% | 83% | 1.19 nM | > 10000 nM | 0.19 nM | – | – | – | – | Cc1cc(NC(=O)c2cccc(C3CC3c3cc(Nc4ccccc4)n[nH]3)c2)ccc1C(C)C (stereo not drawn) [Example H-1, N-(4-Isopropyl-3-methyl-phenyl)-3-[2-(5-phenylamino-2-H-pyrazol-3-yl)cyclopropyl]-benzamide] | 27 nM | – | – | – |
| – | 79% | 1.46 nM | 10000 nM | 1.6 nM | 59 nM | – | – | – | Cc1cc(NC(=O)c2cccc(OCc3cncc4ccccc34)c2)ccc1C(C)C [Example K-1, N-(4-Isopropyl-3-methyl-phenyl)-3-(Isoquinolin-4-yl)methoxy-benzamide] | 40 nM | > 1000 nM | – | – |
| 82% | 59% | 3.49 nM | 8100 nM | – | – | – | – | – | Cc1ccc(C(=O)Nc2ccc(C(C)C)c(C)c2)cc1OCc1cncc2ccccc12 [Example K-11, N-(4-Isopropyl-3-methyl-phenyl)-4-methyl-3-(Isoquinolin-4-yl)methoxy-benzamide] | 37 nM | – | – | – |
| 48% | 70% | 2.96 nM | 4700 nM | – | – | – | – | – | Cc1cc(NC(=O)c2ccc(Cl)c(OCc3cncc4ccccc34)c2)ccc1C(C)C [Example K-12, N-(4-Isopropyl-3-methyl-phenyl)-4-chloro-3-(Isoquinolin-4-yl)methoxy-benzamide] | 27 nM | – | – | – |
| 87% | 96% | – | 5700 nM | 3.4 nM | – | 175 to 180 °C | – | – | Cl.O=C(Nc1ccc(N2CCOCC2)c(C(F)(F)F)c1)c1ccc(F)c(OCc2cncc3ccccc23)c1 [Example R-14, 4-Fluoro-N-(4-morpholin-4-yl-3-trifluoromethyl-phenyl)-3-(isoquinolin-4-ylmethoxy)-benzamide] | 14 nM | 345 nM | – | – |
| 26% | 41% | – | 3100 nM | 8.8 nM | – | – | – | – | O=C(Nc1ccc(N2CCNCC2)c(C(F)(F)F)c1)c1ccc(F)c(OCc2cncc3ccccc23)c1 [Example R-15, 4-Fluoro-N-(4-piperazin-1-yl-3-trifluoromethyl-phenyl)-3-(isoquinolin-4-ylmethoxy)-benzamide] | 36 nM | 130 nM | – | – |
| 65% | 56% | – | – | – | – | 205 to 210 °C | – | 0.7 nM | CC(C)(C)c1cc(C(=O)Nc2cccc(SCc3cncc4ccccc34)c2)ccc1O.Cl [Example W-3, 3-t-Butyl-4-hydroxy-N-[3-(isoquinolin-4-ylmethylsulfanyl)-phenyl]-benzamide] | – | – | 220 nM | – |

Continued, compound first:

| SMILES | inhibition at 1 µM [1] | inhibition at 1 µM [2] | Ki [3] | IC50 [4] | Ki [5] | Ki [1] | melting point | inhibition at 0.05 µM ([5]; @ 50 nM, read-out: FLVK percent inhibition) | Ki [5, 8] | IC50 ([6]; HUVEC, read-out: HUVEC IC50) | IC50 [6, 7] | IC50 [6, 9] | IC50 ([6]; HUVEC proliferation with albumin, read-out: Huvec + Albumin IC50) |
| --- | --- | --- | --- | --- | --- | --- | --- | --- | --- | --- | --- | --- | --- |
| COc1ccc(/C=C/c2cc(CCc3cccc(C(=O)Nc4ccc(C(C)C)c(C)c4)c3)[nH]n2)cc1OC [Example F-3, 3-(2-{5-[(E)-2-(3,4-Dimethoxyphenyl)ethenyl]-2H-pyrazol-3-yl}-ethyl)-N-(3-methyl-4-isopropylphenyl)-benzamide] | 84% | 83% | 1.01 nM | > 10000 nM | 0.31 nM | – | – | – | – | 10 nM | – | – | – |
| COc1ccc(Nc2cc(CCc3cccc(C(=O)Nc4ccc(N(C)C)c(C(F)(F)F)c4)c3)[nH]n2)cn1 [Example G-5, N-(4-Dimethylamino-3-trifluoromethylphenyl)-3-{2-[5-(6-methoxypyridin-3-yl)amino-2H-pyrazol-3-yl]ethyl}-benzamide] | – | 68% | 1.86 nM | > 10000 nM | 0.35 nM | 69 nM | – | – | – | 8.4 nM | – | – | – |
| COc1ccc(Nc2cc(CCc3cccc(C(=O)Nc4cnc(N(C)C)c(C(F)(F)F)c4)c3)[nH]n2)cn1 [Example G-6, N-(6-Dimethylamino-5-trifluoromethylpyridin-3-yl)-3-{2-[5-(6-methoxypyridin-3-yl)amino-2H-pyrazol-3-yl]ethyl}-benzamide] | – | 74% | 1.98 nM | 10000 nM | – | 65 nM | – | – | – | 12 nM | 59 nM | – | – |
| COc1ccc(Nc2cc(CCc3cccc(C(=O)Nc4ccc(N5CCNCC5)c(C(F)(F)F)c4)c3)[nH]n2)cn1 [Example G-10] | 48% | 33% | 2.6 nM | 5100 nM | 3 nM | – | – | – | – | 5.7 nM | 180 nM | – | – |
| O=C(Nc1cc(Cl)c(N2CCCC2)c(Cl)c1)c1ccc(F)c(OCc2cccnc2)c1 [Example R-11, N-(3,5-Dichloro-4-pyrrolidin-1-yl-phenyl)-4-fluoro-3-(pyridin-3-ylmethoxy)-benzamide] | 59% | 30% | – | – | – | – | 163 to 167 °C | 59% | – | 31 nM | – | – | – |
| O=C(Nc1ccc(N2CCOCC2)c(C(F)(F)F)c1)c1ccc(F)c(OCc2cccnc2)c1 [Example R-12, 4-Fluoro-N-(4-morpholin-4-yl-3-trifluoromethyl-phenyl)-3-(pyridin-3-ylmethoxy)-benzamide] | 45% | 62% | – | 5900 nM | 4.4 nM | – | 160 to 161 °C | – | – | 15 nM | – | – | – |
| O=C(Nc1ccc(N2CCNCC2)c(C(F)(F)F)c1)c1ccc(F)c(OCc2cccnc2)c1 [Example R-13, 4-Fluoro-N-[4-(piperazin-1-yl)-3-trifluoromethylphenyl]-3-(pyridin-3-yl)methoxybenzamide] | 5% | 7% | – | 1800 nM | 16.5 nM | – | 123 to 131 °C | – | – | 19 nM | 120 nM | – | – |
| CC(C)(C)c1cc(C(=O)Nc2cccc(SCc3cccnc3)c2)ccc1O [Example W-2, 3-t-Butyl-4-hydroxy-N-[3-(pyridin-3-ylmethylsulfanyl)-phenyl]-benzamide] | 19% | 18% | – | – | – | – | 95 to 100 °C | – | 1.5 nM | – | – | 120 nM | – |
| CC(C)(C)c1cc(C(=O)Nc2cccc(OCc3cncc(Br)c3)c2)ccc1O [Example X-1, N-[3-(5-Bromo-pyridin-3-ylmethoxy)-phenyl]-3-t-butyl-4-hydroxy-benzamide] | 59% | 28% | – | – | – | – | 105 to 111 °C | – | 1.5 nM | – | – | 27 nM | 330 nM |
